Assay results published in patent publication US20200397855A1, “MODULATION OF PLA2-G1B IN THERAPY” (priority 2018, published 2020).

Assays:
[1] = test system: PLA2-GIB activity on the membrane of Jurkat E6.1 T cells; test: PLA2-GIB enzymatic assay on [3H] arachidonic acid labelled Jurkat E6.1 T cells; assay type: cell-based, human; settings: for PLA2-GIB activity vs scrambled PEP3: pretreatment 21 h
Protocol: (§1) Jurkat E6.1 T cells (ECACC 88042803) or gC1qR KO Jurkat E6.1 T cells were incubated for 17 h at 5×10^5 cells/ml with 1 μCi/ml of arachidonic acid [5,6,8,9,11,14,15-^3H(N)] (Perkin Elmer, NET298Z250UC) in RPMI 1640 medium (Lonza) supplemented with 10% FBS, 50 mM HEPES pH 7.4, glutamine, penicillin, streptomycin and fungizone at 2 ml/well in 6-well plates at 37° C. in a 5% CO2 humidified atmosphere. Cells were washed twice with RPMI with 10% FBS by centrifugation at 300×g for 10 minutes at room temperature and then frozen in 90% FBS 10% DMSO at 10^7 cells/ml/vial at −80° C. Percent of [3H] arachidonic acid in CD4 T cells is the (1 minus ratio of [3H] arachidonic acid in the supernatant of CD4 T cells without cells (cpm/ml) on total [3H] arachidonic acid in supernatant and cells (cpm/ml).
To test PLA2-GIB activity on [3H] arachidonic acid labelled Jurkat E6.1 T lymphocytes, cells were unfrozen in 10% FBS RPMI preheated at 37° C. by centrifugation at 300×g for 10 minutes at room temperature, washed twice in 2.5% FBS RPMI, and equilibrated at 5×10^4 or 10^5 Jurkat E6.1 T cells/400 μl/well in 24-well polystyrene plates for 1 h 30 at 37° C. in a 5% CO2 humidified atmosphere. Then HCV core solution or vehicle dilution in 2.5% FBS RPMI at 5.95 μM was mixed with an equal volume of a PLA2-GIB solution at 630 nM or 2 μM 2.5% FBS RPMI and 100 μl were added per well at the same time for 2 h. For peptide treatments, cells were pretreated for 2 h, 4 h or 21 h, as indicated on figures, with 50 μl per well of peptide solutions at 110 μM or 55 μM in 2.5% FBS RPMI. Then 50 μl per well of PLA2-GIB at 630 nM or 2 μM 2.5% FBS RPMI or medium alone were added for 2 h. Cells and supernatant were collected in eppendorf tubes and centrifuged at 580×g for 10 minutes at room temperature. The [3H] arachidonic acid released in cell supernatant was quantified in 300 μl with 16 ml of Ultima gold (Perkin Elmer, 6013329) in low diffusion vials (Perkin Elmer, 6000477) on a counter (tri-Carb 2800 TR liquid scintillation analyzer, Perkin Elmer).

[2] = test system: pSTAT5 NT in CD4 T cells stimulated with IL-7; test: PLA2-GIB bioassay on CD4 T cells: pSTAT5 nuclear translocation in response to IL-7 (confocal microscopy); assay type: cell-based, human; settings: for effect on nuclear translocation of phosphoSTAT5 (pSTAT5 NT) induced by IL-7: buffer, FIG. 1A; for pSTAT5 NT in response to IL-7: FIG. 2
Text: Purification of Human CD4 T-lymphocytes—Venous blood was obtained from healthy volunteers through the EFS (Etablissement Francais du Sang, Centre Necker-Cabanel, Paris). CD4 T-cells were purified from whole blood using RosetteSep Human CD4+ T cell Enrichment Cocktail (Stem Cell, 15062). This cocktail contains mouse and rat monoclonal antibodies purified from mouse ascites fluid or hybridoma culture supernatant, by affinity chromatography using protein A or Protein G sepharose. These antibodies are bound in bispecific tetrameric antibody complexes which are directed against cell surface antigens on human hematopoietic cells (CD8, CD16, CD19, CD36, CD56 CD66b, TCRγ/δ) and glycophorin A on red blood cells. The rosetteSep antibody cocktail crosslinks unwanted cells in human whole blood to multiple red blood cells, forming immunorosettes. This increases the density of unwanted cells, such that they pellet along with the free red blood cells when centrifuged over a buoyant density medium such as lymphocytes separation medium (Eurobio, CMSMSL01-01).
Whole blood was incubated with RosetteSep Human CD4+ T cell Enrichment Cocktail at 50 μl/ml for 20 minutes at room temperature under gentle shaking (100 rpm), diluted with an equal volume of PBS+2% foetal bovine serum (FBS) and mixed gently. The diluted samples were centrifuged 20 minutes at 1200×g on top of lymphocytes separation medium. The enriched cells were then collected from the density medium at plasma interface and washed twice with PBS+2% FBS. Cells were subsequently resuspended in RPMI 1640 medium (Lonza) supplemented with 5% FBS, 50 mM HEPES pH 7.4, glutamine, penicillin, streptomycin and fungizone (complete medium), counted with a Moxi Z mini automated cell counter (ORFLO, MXZ000). Cells suspension was adjusted at 7×10^6 cells/ml and equilibrated at least 2 h at 37° C. in a 5% CO2 humidified atmosphere.

gC1qR = target: T1, gC1qR (Homo sapiens, UniProt Q07021); test: gC1qR-peptides binding assay (ELISA); settings: peptide coated on microplate, His-tag-gC1qR 0 to 3 μg/well, FIG. 12
T1 sequence (Q07021 74-282): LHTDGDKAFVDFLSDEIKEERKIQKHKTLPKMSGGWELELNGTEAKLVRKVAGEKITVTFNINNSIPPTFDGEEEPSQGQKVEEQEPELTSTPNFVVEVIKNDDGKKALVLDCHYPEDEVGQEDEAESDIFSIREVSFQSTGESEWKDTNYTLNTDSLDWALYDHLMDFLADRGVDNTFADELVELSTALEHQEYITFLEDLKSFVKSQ
Protocol: The unbound protein was removed; the wells washed 2× with TBST (20 mM Tris-HCl pH 7.5, 150 mM NaCl, and 0.05% Tween-20) and the unreacted sites blocked by incubation (30 min, room temp) with 300 μl of 3% BSA in TBST. After washing (2× with TBST), the microtiter plate bound peptides was incubated (2 h, room temp.) with different amount of His-tag-gC1qR ranging from 0 to 3 μg/well in triplicate. After washing (5 times with TBST), 100 μl of anti-His tag-HRP antibody (1:1000; 71840-3, Merck) in 3% BSA in TBST was added per well and incubated for 2 h at room temperature. Microplates wells were then washed (5 times with TBST) and 100 μl of TMB ELISA substrate standard solution (UP664781, Interchim) was added per well. Reaction was stopped with 100 μl per well of a H2SO4 solution at 0.16M and OD at 450 nm was measured on a microplate reader (Tecan Infinite M1000 Pro).

[3] = test system: PLA2-GIB enzymatic activity on CD4 T cells membranes; test: PLA2-GIB enzymatic assay on [3H] arachidonic acid labelled CD4 T cells; assay type: cell-based, human
Protocol: as §1, with “PLA2-GIB enzymatic assay on [3H] arachidonic acid labelled CD4 T cells or Jurkat” for “Jurkat”, “cells—Purified CD4 T-cells” for “cells (ECACC 88042803) or gC1qR KO Jurkat E6.1 T cells”, “16” for “17”, “2×10^6” for “5×10^5”, “580×g” for “300×g”
To test PLA2-GIB activity on [3H] arachidonic acid labelled CD4 T lymphocytes, cells were unfrozen in 10% FBS RPMI preheated at 37° C. by centrifugation at 580×g for 10 minutes at room temperature, washed twice in 2.5% FBS RPMI, and equilibrated at 2×10^5 CD4 T cells/400 μl/well in 24-well polystyrene plates for 1 h 30 at 37° C. in a 5% CO2 humidified atmosphere. […] Cells and supernatant were collected in eppendorf tubes and centrifuged at 580×g for 10 minutes at room temperature. The [3H] arachidonic acid released in cell supernatant was quantified in 300 μl with 16 ml of Ultima gold (Perkin Elmer, 6013329) in low diffusion vials (Perkin Elmer, 6000477) on a counter (tri-Carb 2800 TR liquid scintillation analyzer, Perkin Elmer).
To study PLA2-GIB effect on CD4 T cells membranes we developed a new enzymatic assay in which CD4 T cells are labelled with [3H] arachidonic acid. When these cells are exposed to PLA2-GIB the enzymatic activity on CD4 T cells releases [3H] arachidonic acid. The quantification of [3H] arachidonic acid allowed us to quantify PLA2-GIB activity.

[4] = peptide alone, without PLA2-GIB, FIG. 5B

NH2-SGEGGWSNGSLVDIM-COOH (H-SGEGGWSNGSLVDIM-OH) [HP Pg]
PLA2-GIB activity vs scrambled PEP3 ([1]; 200 nM PLA2-GIB, FIG. 15): significantly increased

NH2-PWNATWTQRTLDDIW-COOH (H-PWNATWTQRTLDDIW-OH) [CTL peptide, control peptide (CTL), reference compound]
effect on pSTAT5 NT [2, 4]: no effect | effect on pSTAT5 NT ([2]; peptide with 5 nM PLA2-GIB, FIG. 5B): no effect | binding to gC1qR (gC1qR): essentially do not

NH2-PWNASWSNKSLDDIW-COOH (H-PWNASWSNKSLDDIW-OH) [PEP3]
inhibition of pSTAT5 NT ([2]; 0.025 μg/ml PEP3 with 5 nM PLA2-GIB, FIG. 5B): 18% | inhibition of pSTAT5 NT ([2]; 0.5 μg/ml PEP3 alone, n=3 donors, FIG. 5C): 5% | inhibition of pSTAT5 NT ([2]; 2.5 μg/ml PEP3 with 5 nM PLA2-GIB, FIG. 5B): 51% | effect on pSTAT5 NT [2, 4]: no effect | PLA2-GIB activity vs scrambled PEP3 ([1]; WT Jurkat E6.1 cells, FIG. 13): increased significantly | PLA2-GIB activity on the membrane of Jurkat E6.1 T cells vs scrambled PEP3 ([1]; pretreatment 4 h or more, peptide 11 μM, 200 nM PLA2-GIB, FIG. 11): significantly increased | binding to gC1qR (gC1qR): binds to gC1qR

PLA2-GIB: Recombinant human group IB pancreatic phospholipase A2, produced in E. coli or CHO-S (SEQ ID NO: 1)
effect on nuclear translocation of phosphoSTAT5 (pSTAT5 NT) induced by IL-7 ([2]; 5 nM PLA2-GIB alone): does not affect | pSTAT5 NT in response to IL-7 ([2]; 5 nM PLA2-GIB, compared with no PLA2-GIB): biologically similar | inhibition of pSTAT5 NT ([2]; 75 nM PLA2-GIB alone, FIG. 4): 49% | effect on nuclear translocation of phosphoSTAT5 (pSTAT5 NT) induced by IL-7 ([2]; 75 nM PLA2-GIB alone): significantly decreases | pSTAT5 NT in response to IL-7 ([2]; 75 nM PLA2-GIB): 50% | inhibition of pSTAT5 NT ([2]; 250 nM PLA2-GIB alone, FIG. 4): 79% | pSTAT5 NT in response to IL-7 ([2]; 250 nM PLA2-GIB): 10%

NH2-WNWDSKILSDPAWNS-COOH (H-WNWDSKILSDPAWNS-OH) [Scrambled PEP3, Scrambled PEP3 control peptide]
binding to gC1qR (gC1qR): essentially do not

C1q: Complement component C1q from human serum (Sigma C1740), natural ligand of gC1qR
inhibition of pSTAT5 NT ([2]; C1q (10 μg/ml) with 5 nM PLA2-GIB, FIG. 6A): 75-85% | inhibition of pSTAT5 NT ([2]; C1q alone (10 μg/ml), FIG. 6A): 40%

B1: HCV core protein: Recombinant HCV core protein (Prospec HCV-011), SEQ ID NO: 43 (protein)
chain: MSTNPKPQRKTKRNTIRRPQDVKFPGGGQIVGGVYLLPRRGPRLGVRATRKTSERSQPRGRRQPIPKARRPEGRTWAQPGYPWPLYGNEGMGWAGWLLSPRGSRPSWGPTDPRRRSRNLGKVIDTLTCGFADLMGYVPLVGAPLGGAARALAHGVRALEDGVNYATGNLPGCSFSISLWXLLSCLTIPASA
modifications: not fully specified; X: residue not identified in the source
release of [3H] arachidonic acids by CD4 T cells ([3]; 10 μg/ml HCV core protein alone, FIG. 8B): slightly and significantly increases | fold increase of PLA2-GIB activity ([3]; 10 μg/ml HCV core protein, 63 nM PLA2-GIB, FIG. 8A): 26 fold | fold increase of PLA2-GIB activity ([3]; 10 μg/ml HCV core protein, 63 nM PLA2-GIB, n=3 donors, FIG. 8B): 26 fold | fold increase of PLA2-GIB activity ([3]; 10 μg/ml HCV core protein, 200 nM PLA2-GIB, FIG. 8A): 16 fold | fold increase of PLA2-GIB activity ([3]; 10 μg/ml HCV core protein, 200 nM PLA2-GIB, n=3 donors, FIG. 8B): 16 fold | fold increase of PLA2-GIB activity ([3]; 20 μg/ml HCV core protein, 63 nM PLA2-GIB, FIG. 8A): 36 fold | fold increase of PLA2-GIB activity ([3]; 20 μg/ml HCV core protein, 200 nM PLA2-GIB, FIG. 8A): 26 fold | release of [3H] arachidonic acids by CD4 T cells ([3]; HCV core protein alone at 10 and 20 μg/ml, FIG. 8A): slightly induces | PLA2-GIB activity on the membrane of Jurkat E6.1 T cells ([1]; HCV core 595 nM (10 μg/ml), FIG. 14): significantly increased
